“Also recorded” adds a separate entry of the source.
Tests used:
[1] = tested on: NF-κB; assay: Inhibition of E. coli LPS-stimulated NF-κB activation (CD25 expression) in 3FP CHO cells; type: cell-based, Chinese hamster; details: for nuclear transcription factor inhibition: LPS-stimulated 3FP cells, CD25 expression; for inhibition effect for LPS-stimulated CD25 expression (NF-κB activation): live 7AAD(−) LPS-stimulated 3FP cells
Experimental: In order to evaluate the inhibition efficacy for the activation of E. coli LPS-stimulated NF-κB in a CHO cell, % expression of CD 25 in the CHO cell was evaluated as the following method, and FACS analysis after staining with 7-AAD was carried out to evaluate the cytotoxicity. Bile salts were classified into 3 groups based on their solubility in different solvents, as follows:
The CHO cells expressing CD25 under the regulation of a nuclear factor (NF-κB) promoter, shown FIG. 2A, were used for this experiment. Toll-like receptor 2 (TLR2) and CD14 gene-transformed CHO cells (hereinafter referred to as “3FP cells”) were also used.
The next day, the cultured cells were treated with bile acid derivatives and LPS, and were incubated in a CO2 incubator for 15 hr at 37° C.
After stimulating the above incubated cells for 15 hr, the culture solution was centrifuged (1200 rpm, 5 min, 4° C.) to remove the culture supernatant. The precipitate was washed twice with 200 μl of FACS buffer (1×PBS containing 1% BSA and 1 mM EDTA). 20 μl of blocking solution (PBS containing 1:10 of normal mouse serum and 1:3 of anti-human CD14/CD32 (BD, 2.4G2) was added to each well and reacted on an ice for 30 min. A mixture solution of anti-human CD25-PE (1:16) and anti-human CD14-FITC (1:32) was added to the well and then reacted on the ice for 30 min. The reaction mixture was washed twice with 200 μl of FACS buffer, and then 200 μl of 7-AAD (1:20) was added to the reaction mixture. After the reaction mixture was reacted on the ice for 10 min, CD25 expression efficacy and cytotoxicity were analyzed by using a flow cytometer.
In order to analyze living cells, 7-AAD(−) cells were selected and an activation of nuclear transcription factor was confirmed by the increase of CD25 expression.

[2] = tested on: dendritic cells; assay: Inhibition of E. coli LPS-induced activation of dendritic cells (CD40, CD80, CD86, I-Ab expression); type: cell-based, mouse; details: 100 ng/ml E. coli LPS; CD11c(+)/7AAD(−) dendritic cells
Experimental: In order to assay the effect of sodium glycocholate on the activation procedure of antigen presenting cells, which is induced by E. coli LPS, cells were separated from the bone marrow of recombination activating gene 2 (Rag2) deficient mouse. The separated cells were plated at 2×10^5 cells/well in a 96-well plate and then treated with 1.5 ng/ml of granulocyt-macrophage colony-stimulating factor (GM-CSF) and 0.75 ng/ml of interleukin-4 followed by the differentiation of the cells into dentritic cells through 6-day incubation.
The dendritic cells were well mixed with sodium glycocholate and LPS. The mixtures were stimulated for 18 hours at 37° C., and stained with anti-CD40-FITC, anti-CD80-FITC, anti-I-Ab-PE, anti-CD86-PE, 7AAD and anti-CD11c-APC, then the cells were assayed via a flow cytometer. Each group was treated and assayed at least twice, and the results were statistically analyzed through t-test. The results were p<0.05 compared with the experimental groups treated by only LPS.
As shown FIGS. 9A-9B to 11A-11B, in order to assay only living dedritic cells, CD11c(+)/7AAD(−) cells were selected and then the expressions of dendritic cell costimulatory molecules and I-Ab were assayed.

[3] = tested on: dendritic cells; assay: In vitro proinflammatory cytokine generation by E. coli LPS, dendritic cells (ELISA); type: cell-based, mouse; details: LPS stimulation
Experimental: In order to assay the effect of sodium glycocholate on the generation of proinflammatory cytokines induced by E. coli LPS, dendritic cells were prepared in the same way as Example 3, and macrophages were separated from the abdomen of C57BL/6 mouse. Thereafter, sodium glycocholate and LPS were reacted in vitro for 1 hour at 37° C., and then mixed with the cells. Each cell was stimulated for 14 hours at 37° C., and then supernatant fluid was separated.
The concentrations of TNF-α and interleukin-12p40 in the separated supernatant fluid was measured by an enzyme-linked immunoabsorbent assay (ELISA).
Each group was treated and assayed at least twice, and the results were statistically analyzed through t-test. The results were p<0.05 compared with the experimental groups treated by only LPS.

[4] = tested on: dendritic cell-mediated T cell; assay: Inhibition of the activation of dendritic cell-mediated T cell by E. coli LPS ([3H]-methylthymidine); type: cell-based, mouse
Experimental: Antigen presenting cells activated by LPS activates T cells. It was tested whether dendritic cells blocked by sodium glycocholate can activate T cells when LPS activates dendritic cells. Cells were harvested from the bone marrow of Rag2 deficient male mouse. The harvested cells were plated at 4×10^3 cells/well in a 96-well plate and treated with 1.5 ng/ml of […] and 0.75 ng/ml of interleukin-4, and then incubated for 6 days to differentiate into dendritic cells. Sodium glycocholate was reacted with LPS for 1 hour at 37° C., and then mixed with the dendritic cells. The dendritic cells were stimulated for 14 hours at 37° C., and CD3+ and CD4+ T cells separated from female Marilyn mouse having H-Y antigen-specific T cell receptor (TCR), were incubated with the dendritic cells for 72 hours. [3H]-methylthymidine was added, at 1 μCi/well, to the 96-well plate and then incubated for 18 hours. Cells were harvested from the 96-well plated and then CPM (count per minute) was measured through a beta counter.

[5] = tested on: LPS-administered C57BL/6 mouse; assay: In vivo serum cytokines in LPS-administered mice (CBA kit)
Experimental: As described in Example 7, 20 mg/kg of LPS was administered into the abdomen of mice and then 12.5 mg/kg of sodium glycocholate, and 20 mg/kg of LPS and 50 mg/kg of sodium glycocholate respectively was administered twice into the abdomen of mice, respectively. At the predetermined time, blood was collected from mouse tail and then serum was obtained by centrifugation (2400×g, 10 min). The change of cytokine expression in the serum was measured by using cytometric bead array (CBA) kit.

[6] = tested on: Balb/c mice; assay: Acute toxicity in mice, single administration into abdomen or tail vein; type: in vivo
Experimental: Acute toxicity was measured by using five Balb/c mice of 6 weeks age per group, which were once administered with sodium glycocholate, at different sodium glycocholate concentrations, into the abdomen and tail vein. […] However, 250 mg/kg of sodium glycocholate at which the above-mentioned effects of sodium glycocholate, and the sodium glycocholate concentration of below 250 mg/kg, 100 % of the mice survived (FIGS. 32A-32B). Also, 100 % of the mice survived at the sodium glycocholate concentration of not exceeding 150 mg/kg in the experiment where sodium glycocholate of different concentrations was adiministered into tail vein of mice (FIG. 33).

C[C@H](CCC(=O)NCC(=O)[O-])[C@H]1CC[C@H]2[C@@H]3[C@H](O)C[C@@H]4C[C@H](O)CC[C@]4(C)[C@H]3C[C@H](O)[C@]12C.[Na+] [sodium glycocholate]
nuclear transcription factor inhibition ([1]; 0.5 mg/ml): 21.7±0.9% | nuclear transcription factor inhibition ([1]; 1 mg/ml): 88.2±1.2% | inhibition effect for LPS-stimulated CD25 expression (NF-κB activation) [1]: inhibited depending on the concentration | inhibition effect for LPS-stimulated CD25 expression (NF-κB activation) ([1]; listed as sodium glycocholate hydrate): showed an inhibition effect | increased expression of CD40, CD80, CD86 and I-Ab [2]: inhibited depending on the concentration | inhibition of generation of TNF-α ([3]; 0.5 mg/ml): 70.2±2.3% | inhibition of generation of interleukine-12p40 ([3]; 0.5 mg/ml): 4.7±3.1% | inhibition of generation of TNF-α ([3]; 1 mg/ml): 101.0±0.2% | inhibition of generation of interleukine-12p40 ([3]; 1 mg/ml): 106.6±1.3% | inhibition of proliferation of dendritic cell-mediated T cell ([4]; 0.5 mg/ml): 104.9±3.2% | inhibition of proliferation of dendritic cell-mediated T cell ([4]; 1 mg/ml): 105.1±3.2% | IL-10 in serum [5]: significantly increased; also recorded: increase | IFN-g in serum ([5]; after 4, 8 and 12 hours): decrease | IL-12p70 in serum ([5]; after 4, 8 and 12 hours): decrease | IL-6 in serum ([5]; after 12, 24 and 48 hours): remarkably decreased; also recorded: decrease | MCP-1 in serum ([5]; after 12, 24 and 48 hours): remarkably decreased; also recorded: decrease | TNF-α in serum ([5]; after 12, 24 and 48 hours): remarkably decreased; also recorded: decrease | mice survived ([6]; abdominal administration, 250 mg/kg and below): 100% | concentration (dose) at which toxicity was shown ([6]; abdominal administration, single dose): > 500 mg/kg | adverse effect ([6]; mouse test, dose of 250 mg/kg mouse): no adverse effect | mice survived ([6]; tail vein administration, not exceeding 150 mg/kg): 100%

Source: US9272047B2, “Use of biological surfactant as anti-inflammatory agent and tissue preservative solution” (Shaperon Inc., priority 2007, dated 2016)
